{"source": "paper PMC12002301", "about": "“Discovery and functional characterization of a bombesin-type neuropeptide signaling system in an invertebrate” (Proceedings of the National Academy of Sciences of the …, 2025)", "system": "ArBNR2", "assay": "Luminescence (GFP-aequorin Ca2+) assay, CHO-K1 cells coexpressing ArBNR2 and Gqs5", "format": "cell-based, Asterias rubens", "settings": "ArBNR2, words; up to 10^-5 M", "procedure": "Having investigated relationships of eleven A. rubens BN-type receptor candidates (ArBNR1-11) with BN-type, ET-type, and CCHa/EP-type receptors in other taxa, ArBNR1 was identified as the best candidate and therefore this was selected for experimental testing. However, two other receptors (ArBNR2 and ArBNR3) were also tested. The methods employed for functional characterization of A. rubens neuropeptide receptors have been described previously ([57]) and a description of the methods employed in this study is included in SI Appendix, SI Methods. […]\nFunctional characterization of A. rubens BN-type receptors\nTwo cDNAs encoding ArBNR1 and ArBNR3 were cloned from A. rubens radial nerve cord cDNA using Q5 polymerase (NEB, Cat. no. M0491S) and PCR with specific primers (SI Appendix, Table S5). To facilitate expression of the cloned receptors, the forward primers were designed to contain a partial Kozak consensus sequence (ACC) before the ATG start codon. Then, PCR products were inserted into the mammalian expression vector pcDNA 3.1(+) (Invitrogen, Cat. no.\nV79020) that had been cut in advance with the restriction enzyme EcoRV (NEB, Cat. no. […] Successful ligation and the direction of the insert was determined by restriction enzyme digestion and sequencing (TubeSeq service; Eurofins Genomics). […]\nidentical to residues 18 - 270 of the protein XP_033631283.1, which was determined from genome […]", "data": [{"substance": "EPMPSSLALYIANLSP-NH2 [ArBNP65-81, C-terminally amidated 16-residue peptide predicted to be derived from residues 65 to 81 of ArBNP]", "values": [{"measurement": "peptide-induced luminescence", "value": "did not trigger luminescence"}]}, {"substance": "NYNRVFGPTY-NH2 [ArBN5-14, C-terminally amidated 10-residue peptide corresponding to the C-terminal region of ArBN]", "values": [{"measurement": "peptide-induced luminescence", "value": "did not trigger luminescence"}]}]}
